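Following 48 hours of exposure in 96-well plates, responses at five concentrations were used to interpolate endpoints linearly. GI50 marks 50% less growth.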 Calls of active or inactive are those of the source. No stated cut-off is given here; in the data, active = GI50 up to about 1.1 µM and inactive = higher.
Legend:
Assay in all cases: growth of human tumour cells (NCI), 48 h
[1] = test system: KM12
[2] = test system: OVCAR-3
[3] = test system: SNB-75
[4] = test system: NCI-H522
[5] = test system: DU-145
[6] = test system: OVCAR-8
[7] = test system: CCRF-CEM
[8] = test system: SK-MEL-28
[9] = test system: OVCAR-4
[10] = test system: SK-OV-3
[11] = test system: SK-MEL-5
[12] = test system: BT-549
[13] = test system: UACC-62
[14] = test system: COLO 205
[15] = test system: HOP-62
[16] = test system: EKVX
[17] = test system: OVCAR-5
[18] = test system: SF-539
[19] = test system: SN12C
[20] = test system: UACC-257
[21] = test system: HL-60
[22] = test system: TK-10
[23] = test system: SW-620
[24] = test system: MDA-N
[25] = test system: UO-31
[26] = test system: Hs-578T
[27] = test system: SF-295
[28] = test system: HT-29
[29] = test system: A549
[30] = test system: HCC 2998
[31] = test system: Malme-3M
[32] = test system: MOLT-4
[33] = test system: MDA-MB-435
[34] = test system: NCI-H460
[35] = test system: SF-268
[36] = test system: IGROV-1
[37] = test system: M14
[38] = test system: SR
[39] = test system: ACHN
[40] = test system: RXF 393
[41] = test system: NCI-H23
[42] = test system: A498
[43] = test system: RPMI-8226
[44] = test system: 786-0
[45] = test system: U-251
[46] = test system: HOP-92
[47] = test system: MCF7
[48] = test system: HCT-116
[49] = test system: SNB-19
[50] = test system: HCT-15
[51] = test system: CAKI-1
[52] = test system: PC-3
[53] = test system: NCI/ADR-RES
[54] = test system: LOX IMVI
[55] = test system: K562
[56] = test system: MDA-MB-231
[57] = test system: NCI-H226
[58] = test system: SK-MEL-2

N=C(N)C1CN(CCc2c[nH]cn2)C(=O)NC1=O (centres undefined)
GI50 [1]: > 100 µM (inactive)
GI50 [2]: > 100 µM (inactive)
GI50 [3]: > 100 µM (inactive)
GI50 [4]: > 100 µM (inactive)
GI50 [5]: > 100 µM (inactive)
GI50 [6]: > 100 µM (inactive)
GI50 [7]: > 100 µM (inactive)
GI50 [8]: > 100 µM (inactive)
GI50 [9]: > 100 µM (inactive)
GI50 [10]: > 100 µM (inactive)
GI50 [11]: > 100 µM (inactive)
GI50 [12]: > 100 µM (inactive)
GI50 [13]: > 100 µM (inactive)
GI50 [14]: > 100 µM (inactive)
GI50 [15]: > 100 µM (inactive)
GI50 [16]: > 100 µM (inactive)
GI50 [17]: > 100 µM (inactive)
GI50 [18]: > 100 µM (inactive)
GI50 [19]: > 100 µM (inactive)
GI50 [20]: > 100 µM (inactive)
GI50 [21]: > 100 µM (inactive)
GI50 [22]: > 100 µM (inactive)
GI50 [23]: > 100 µM (inactive)
GI50 [24]: > 100 µM (inactive)
GI50 [25]: > 100 µM (inactive)
GI50 [26]: > 100 µM (inactive)
GI50 [27]: > 100 µM (inactive)
GI50 [28]: > 100 µM (inactive)
GI50 [29]: > 100 µM (inactive)
GI50 [30]: > 100 µM (inactive)
GI50 [31]: 36 µM (inactive)
GI50 [32]: > 100 µM (inactive)
GI50 [33]: > 100 µM (inactive)
GI50 [34]: > 100 µM (inactive)
GI50 [35]: > 100 µM (inactive)
GI50 [36]: > 100 µM (inactive)
GI50 [37]: > 100 µM (inactive)
GI50 [38]: > 100 µM (inactive)
GI50 [39]: > 100 µM (inactive)
GI50 [40]: > 100 µM (inactive)
GI50 [41]: > 100 µM (inactive)
GI50 [42]: > 100 µM (inactive)
GI50 [43]: > 100 µM (inactive)
GI50 [44]: > 100 µM (inactive)
GI50 [45]: > 100 µM (inactive)
GI50 [46]: > 100 µM (inactive)
GI50 [47]: > 100 µM (inactive)
GI50 [48]: > 100 µM (inactive)
GI50 [49]: > 100 µM (inactive)
GI50 [50]: > 100 µM
GI50 [51]: > 100 µM (inactive)
GI50 [52]: > 100 µM (inactive)

CCN(CC)CCN1C(=O)c2c(c(-c3ccccc3)c3ccccc3c2-c2ccccc2)C1=O
GI50 [1]: > 100 µM (inactive)
GI50 [3]: > 100 µM (inactive)
GI50 [4]: > 100 µM (inactive)
GI50 [53]: > 100 µM (inactive)
GI50 [6]: > 100 µM (inactive)
GI50 [7]: > 100 µM (inactive)
GI50 [9]: > 100 µM (inactive)
GI50 [10]: > 100 µM (inactive)
GI50 [11]: > 100 µM (inactive)
GI50 [12]: > 100 µM (inactive)
GI50 [13]: > 100 µM (inactive)
GI50 [14]: > 100 µM (inactive)
GI50 [15]: 71.1 µM (inactive)
GI50 [16]: > 100 µM (inactive)
GI50 [17]: > 100 µM (inactive)
GI50 [18]: 54.1 µM (inactive)
GI50 [54]: > 100 µM (inactive)
GI50 [19]: > 100 µM (inactive)
GI50 [20]: > 100 µM (inactive)
GI50 [21]: > 100 µM (inactive)
GI50 [22]: > 100 µM (inactive)
GI50 [23]: > 100 µM (inactive)
GI50 [24]: > 100 µM (inactive)
GI50 [26]: > 100 µM (inactive)
GI50 [27]: 71.6 µM (inactive)
GI50 [28]: > 100 µM (inactive)
GI50 [29]: > 100 µM (inactive)
GI50 [30]: > 100 µM (inactive)
GI50 [31]: > 100 µM (inactive)
GI50 [32]: > 100 µM (inactive)
GI50 [33]: > 100 µM (inactive)
GI50 [34]: > 100 µM (inactive)
GI50 [55]: > 100 µM (inactive)
GI50 [35]: > 100 µM (inactive)
GI50 [36]: > 100 µM (inactive)
GI50 [37]: > 100 µM (inactive)
GI50 [39]: > 100 µM (inactive)
GI50 [40]: 25.8 µM (inactive)
GI50 [56]: > 100 µM (inactive)
GI50 [42]: > 100 µM (inactive)
GI50 [43]: > 100 µM (inactive)
GI50 [44]: 37.6 µM (inactive)
GI50 [57]: > 100 µM (inactive)
GI50 [45]: 81.7 µM (inactive)
GI50 [46]: 36.8 µM (inactive)
GI50 [47]: > 100 µM (inactive)
GI50 [48]: > 100 µM (inactive)
GI50 [49]: 46.3 µM (inactive)
GI50 [58]: > 100 µM (inactive)
GI50 [50]: > 100 µM
GI50 [51]: > 100 µM (inactive)
GI50 [52]: > 100 µM (inactive)

CCOC(=O)N/N=C(\Cc1ccc([N+](=O)[O-])cc1)OCC
GI50 [1]: > 100 µM (inactive)
GI50 [2]: > 100 µM (inactive)
GI50 [3]: > 100 µM (inactive)
GI50 [4]: > 100 µM (inactive)
GI50 [53]: > 100 µM (inactive)
GI50 [5]: > 100 µM (inactive)
GI50 [6]: > 100 µM (inactive)
GI50 [7]: > 100 µM (inactive)
GI50 [9]: > 100 µM (inactive)
GI50 [10]: > 100 µM (inactive)
GI50 [11]: > 100 µM (inactive)
GI50 [12]: > 100 µM (inactive)
GI50 [13]: > 100 µM (inactive)
GI50 [14]: > 100 µM (inactive)
GI50 [15]: > 100 µM (inactive)
GI50 [16]: > 100 µM (inactive)
GI50 [17]: > 100 µM (inactive)
GI50 [18]: > 100 µM (inactive)
GI50 [54]: > 100 µM (inactive)
GI50 [19]: > 100 µM (inactive)
GI50 [20]: > 100 µM (inactive)
GI50 [22]: > 100 µM (inactive)
GI50 [23]: > 100 µM (inactive)
GI50 [24]: > 100 µM (inactive)
GI50 [25]: > 100 µM (inactive)
GI50 [27]: > 100 µM (inactive)
GI50 [28]: > 100 µM (inactive)
GI50 [29]: > 100 µM (inactive)
GI50 [30]: > 100 µM (inactive)
GI50 [32]: > 100 µM (inactive)
GI50 [33]: > 100 µM (inactive)
GI50 [55]: > 100 µM (inactive)
GI50 [35]: > 100 µM (inactive)
GI50 [36]: > 100 µM (inactive)
GI50 [37]: > 100 µM (inactive)
GI50 [38]: > 100 µM (inactive)
GI50 [39]: > 100 µM (inactive)
GI50 [40]: > 100 µM (inactive)
GI50 [41]: > 100 µM (inactive)
GI50 [56]: > 100 µM (inactive)
GI50 [43]: > 100 µM (inactive)
GI50 [44]: > 100 µM (inactive)
GI50 [45]: > 100 µM (inactive)
GI50 [46]: > 100 µM (inactive)
GI50 [47]: > 100 µM (inactive)
GI50 [48]: > 100 µM (inactive)
GI50 [49]: > 100 µM (inactive)
GI50 [58]: > 100 µM (inactive)
GI50 [50]: > 100 µM
GI50 [52]: > 100 µM (inactive)

Reference: ChEMBL document CHEMBL1201862, “PubChem BioAssay data set” (2004)
